These results are taken from ChEMBL document CHEMBL4811237, “Phenanthridine Derivative Host Heat Shock Cognate 70 Down-Regulators as Porcine Epidemic Diarrhea Virus Inhibitors” (J Nat Prod, 2021).

The structures appear in SMILES notation. Calls of active or inactive are those of the source. No cut-off for these calls is given here. Where only a bound is given, the exact number is not on record here.

The EC50 is the concentration needed to bring the measured effect to its halfway point. As a reminder, the CC50 is the concentration at which the toxic effect on the cells reaches its halfway point.

Series [1] has as its system Porcine epidemic diarrhea virus. Put plainly: Antiviral activity against PEDV 85-7 infected in Marc145 cells assessed as inhibition of viral replication by measuring reduction in mRNA level at 10 uM after 24 hrs by qPCR analysis. Also noted: scale not given: the % may be the effect or the level left. The series is classed as functional. Background: Quantitative PCR measures a nucleic acid by following its amplification.

The test system is the same in series [2]. Put plainly: Antiviral activity against PEDV 85-7 infected in Marc145 cells assessed as inhibition of viral transcription after 24 hrs by qPCR analysis. The note with it: 85-7, MARC145, 24 h. Type of series: functional, organism-based.
The nature of series [3]: Cytotoxicity against African green monkey MARC145 cells by CCK8 assay. The note with it: chlorocebus aethiops. The series is classed as cell-based. In general terms: Formazan colour is commonly taken as a measure of viable cells.
A short description of series [4]: Selectivity index, ratio of CC50 for cytotoxicity against African green monkey MARC145 cells to EC50 for antiviral activity against PEDV 85-7. Type of series: toxicity, cell-based. The note with it: read-out: Ratio CC50/EC50.
Series [5] concerns Porcine epidemic diarrhea virus. Put plainly: Antiviral activity against PEDV 85-7 infected in Marc145 cells assessed as reduction in PEDV-N protein level at 10 uM by Western blotting analysis. The series is classed as functional, organism-based. On the technique in general: A western blot detects proteins with antibodies after separation by electrophoresis.
Series [6] has the same test system. As to the kind of experiment: Antiviral activity against PEDV 85-7 infected in Marc145 cells assessed as reduction in viral virion at 20 uM by plaque assay. Type of series: functional, organism-based.
For series [7] the test system is unchanged. Put plainly: Antiviral activity against PEDV 85-7 infected in Marc145 cells assessed as reduction in PDEV protein level at 10 uM after 24 hrs by indirect immunofluorescence assay. Type of series: functional, organism-based.
Series [8] shares this test system. Put plainly: Antiviral activity against PEDV 85-7 infected in Marc145 cells assessed as down regulation of Hsc70 mRNA expression at 10 uM after 24 hrs by qPCR analysis. The series is classed as functional, organism-based.
Another series deals with MARC145. Put plainly: Suppression of Hsc70 expression in African green monkey Marc145 cells assessed as Hsc70 mRNA destabilization by measuring half life at 20 uM (reference value: 6.51 hrs). The series is classed as functional, cell-based. The note with it: Chlorocebus aethiops.
The subject of series [9] is Porcine epidemic diarrhea virus. As to the kind of experiment: Antiviral activity against PEDV (NK-2) inoculated in piglets assessed as reduction in mortality at 50 mg/kg, po administered every 24 hrs for 72 hrs. The series is classed as functional, organism-based.
For series [10] the test system is unchanged. Put plainly: Antiviral activity against PEDV (NK-2) inoculated in piglets assessed as reduction in multifocal diffusion of villous atrophy at 50 mg/kg, po administered every 24 hrs for 72 hrs by HE staining based microscopic analysis. Type of series: functional, organism-based.
Series [11] has the same test system. As to the kind of experiment: Antiviral activity against PEDV (NK-2) inoculated in piglets assessed as reduction in swelling sloughing and attenuation of villi at 50 mg/kg, po administered every 24 hrs for 72 hrs by HE staining based microscopic analysis. The series is classed as functional, organism-based.
For series [12] the test system is unchanged. Put plainly: Antiviral activity against PEDV (NK-2) inoculated in piglets assessed as reduction in fusion of numerous villi at 50 mg/kg, po administered every 24 hrs for 72 hrs by HE staining based microscopic analysis. The series is classed as functional, organism-based.
The test system is the same in series [13]. As to the kind of experiment: Antiviral activity against PEDV (NK-2) inoculated in piglets assessed as reduction in viral replication in intestine at 50 mg/kg, po administered every 24 hrs for 72 hrs by immunofluorescence assay. Type of series: functional, organism-based.
For series [14] the test system is unchanged. Put plainly: Antiviral activity against PEDV 85-7 infected in Marc145 cells assessed as reduction in PEDV-N protein level by Western blotting analysis. The conditions noted are these: dose 0.1-10 µM. The series is classed as functional, organism-based.
For series [15] the test system is unchanged. Put plainly: Antiviral activity against PEDV 85-7 infected in Marc145 cells assessed as down regulation of Hsc70 protein expression after 24 hrs by Western blotting analysis. The series is classed as functional, organism-based. The conditions noted are these: dose 0.1-10 µM.
Series [16] shares this test system. Put plainly: Antiviral activity against PEDV 85-7 infected in Marc145 cells assessed as suppression of viral assembly. Type of series: functional, organism-based.
For series [17] the test system is unchanged. Put plainly: Antiviral activity against PEDV 85-7 infected in Marc145 cells expressing pEGFP-N1/Hsc70 protein assessed as decrease in viral RNA level at 20 uM after 24 hrs by qPCR analysis. Type of series: functional.
Series [18] shares this test system. Put plainly: Antiviral activity against PEDV 85-7 infected in Marc145 cells expressing pEGFP-N1/Hsc70 protein assessed as decrease in PEDV-N-protein level at 20 uM after 24 hrs […]. Type of series: functional.

On to `CCc1cccc2c1N(C)Cc1cc(OC)c(OC)cc1-2`, for which the Activity in [1] is listed as 70%. In series [2], the EC50 came to 1.89 µM. For the same molecule, in series [3], the CC50 is above 100 µM. The selectivity ratio in series [4] was above 53. Further, the outcome in series [5], in series [6], in series [7], in [8], in series [9] and in series [10] was Active. The outcome in series [11], in series [12] and in series [13] was Active. In addition, the T1/2 in the series on MARC145 was determined as 2.31 h.
In the case of `CCc1cccc2c1N(C)Cc1cc(OCc3cc(C)n(C)n3)c(OCc3cc(C)n(C)n3)cc1-2`, the results for the Activity in series [1], in series [14] and in series [15] were 70%, “Dose-Dependent Effect” and “Dose-Dependent Effect”, respectively. Besides, the EC50 in series [2] is 0.72 µM. The CC50 in series [3] was above 100 µM. Also, in series [4], the selectivity ratio was above 134. Moreover, the result in series [5], in series [6], in series [7], in series [8], in [16] and in series [9] was Active. Also, the outcome in [10], in series [11], in [12] and in series [13] was Active. Besides, the “fold change (FC)” value in series [17] worked out at 29.3; in series [18] it was 20.5. Further, in the series with MARC145, the T1/2 is 1.84 h.
Turning to `CCc1cccc2c1N(C)Cc1cc(OC(C)=O)c(OC(C)=O)cc1-2`, the Activity in [1] worked out at 70%. Besides, the EC50 in series [2] was determined as 3.26 µM. The molecule further came in with a half-maximal cytotoxic concentration (CC50) in [3] above 100 µM. The selectivity ratio in series [4] is above 30. Moreover, the outcome in series [5] and in series [8] was Active. The T1/2 with MARC145 turned out to be 2.61 h.
